Experimental findings from patent publication US5780509A, “Compound bearing two, 2,6-diiodophenol-4-YL groups and diagnostic drug for iodine allergy” (Muromachi Kagaku Kogyo Kaisha, Ltd., priority 1994, dated 1998) are described below.

Data set [1] has as its system guinea-pigs immunized with iodine (iodine-sensitized) and non-sensitized guinea-pigs. The data set is described as follows: Active cutaneous anaphylaxis (ACA) reaction, elicitation antigenicity. Also noted: key to Mean diameter of blue spots, non-sensitized guinea-pig / Mean diameter of blue spots, iodine-sensitized guinea pig (second value) / Mean diameter of blue spots, iodine-sensitized guinea pig (first value): --: Negative response; **: Weak response. The class given is in vivo, guinea-pig (male SPF, Hartley strain). To be noted: for Mean diameter of blue spots, iodine-sensitized guinea pig (first value) / Mean diameter of blue spots, iodine-sensitized guinea pig (second value) / Mean diameter of blue spots, non-sensitized guinea-pig: 30 min. The text has this:
The elicitation antigenicity of iodinated tyrosine derivatives was studied in the bases of the active cutaneous anaphylaxis (ACA) reaction in guinea-pigs immunized with iodine.
Animals: Male SPF guinea-pigs of Hartley strain, weighing 300~350 g were purchased from Charles River Japan Co., Ltd. These were immunized after having been acclimated for one week.
Sensitization: A solution of iodine potassium iodide (Wako Junyaku, special grade reagent) and complete Freund's adjuvant (Difco) were mixed in equal amounts to form an emulsion. This was administered subcutaneously into the back of guinea-pigs at a dose of 2 mg of iodine per animal 3 times at intervals of 2 weeks. Active cutaneous anaphylaxis (ACA) was elicited 2 weeks after the last sensitization injection.
ACA Induction: 2% Evans blue physiological solution (0.5 ml/animal) was administered intravenously to guinea-pigs, and immediately thereafter 0.1 ml of an elicitation antigen was administered intradermally into the back, and after 30 min. the existence of pigment leakage at the intradermally injected sites was observed.
Elicitation antigen: Iodinated dityrosine, iodinated trityrosine, iodinated dityrosylphenylalanine were administered intracutaneously at 0.1 ml/site. Guinea-pig serum albumin (fraction V: Sigma) was iodinated and used as a positive control. Corresponding noniodinated ones were also administered intradermally as negative controls.
Iodination reaction: To a 50 mM boric acid buffer solution (pH 9.5) of 10 mg/ml of dityrosine, trityrosine, or dityrosylphenylalanine (all produced by Sigma Co., Ltd.) or guinea-pig serum albumin (abbreviated hereafter as GSA), a 0.5M solution of iodine was added at a ratio of 10:1, and these were reacted at 37 C. overnight. The excess iodine in the reaction mixture was reduced by adding sodium thiosulfate (Nakarai Chemical Co., Ltd.). For purification of the iodinated tyrosine derivatives, the reaction mixture was extracted with ethyl acetate and dried with magnesium sulfate, and hexane was added to obtain crystals. For purification of the iodinated GSA, the reaction mixture was purified by passing it through a Sephadex G25 column.

Data set [2] deals with guinea-pigs. Kind of data set: Passive cutaneous anaphylaxis (PCA) reaction, sensitization antigenicity. Type of data set: in vivo, guinea-pig. An excerpt:
(§1) Sensitization antigenicity of iodinated tyrosine derivative was studied.
(§2) Trityrosine was selected as the tyrosine derivative, and this was iodinated to obtain iodinated trityrosine. Guinea-pigs were sensitized with iodinated trityrosine. As a positive control, employed was iodinated guinea-pig serum albumin (GSA). Guinea-pigs of the control group were sensitized with iodinated GSA. Sensitization was examined by active systemic anaphylaxis (ASA) reaction and passive cutaneous anaphylaxis (PCA) reaction.
(§3) Sensitization: Each of iodinated trityrosine and iodinated GSA was emulsified with complete Freund's adjuvant, and injected subcutaneously to the back of animals at a dose of 10 mg/animal (2.5 mg, respectively, at 4 sites), 3 times at intervals of 2 weeks.
PCA reaction: The blood was taken from each animal, and the serum was separated one week after the last sensitization injection. The serum was diluted fivefold with physiological saline, and injected intradermally to normal guinea-pigs at a dose of 0.1 ml/site. PCA reaction was provoked by intravenous injection of iodinated GSA (1 mg/animal) and Evans blue solution to the recipient animals 4 hours after the intradermal serum injection. PCA reaction was judged as being positive when the diameter of blue spot at the site of intradermal injection was 5 mm or larger.

Data set [3] has as its system anti-iodine antibody. Kind of data set: ELISA inhibition potency (OD50) on anti-iodine antibody. The class given is binding, guinea-pig. To be noted: serial twofold dilution, equal volume of 50-fold diluted anti-iodine antiserum; read-out: Inhibitory activity (OD50): concentration which decreased optical density of ELISA to a half of the control. The method, then: Guinea-pigs were immunized with iodine by injecting subcutaneously 1 mg of iodine containing potassium iodide solution treated with complete Freund's adjuvant seven times at intervals of 2 weeks, and anti-iodine antiserum was obtained from these animals. Antibody titers of the sera were determined by enzyme linked immunosorbent assay (ELISA) using 96 well microplate coated with iodinated guinea pig serum albumin (I-GSA) ELISA inhibition activities of the following compounds were studied. The compounds used were potassium iodide, tyrosine and its derivatives such as L-tyrosine, monoiodo-L-tyrosine, diiodotyrosine, hexaiodo-L-trityrosine, L-hexatyrosine and 12 iodo-L-hexatyrosine, and iodinated X-ray contrast media such as amidotrizoic acid, iodamide, ioxaglic acid, iohexol, iopamidol and iomeprol.
ELISA inhibition study was performed as follows. Antibody concentration of anti-iodine antiserum gave the maximum optical density in ELISA till one hundredfold serum dilution. Accordingly, seven steps of twofold serial dilution of anti-iodine antiserum, starting from 50-fold serum dilution, were made with physiological saline as a diluent. To each of the serially diluted sera, were added equal volume of solution containing each of the test compounds described above. After overnight incubation at 4 C, antibody activity was determined by ELISA. Phosphate buffered physiological saline (PBS) was used as a control. ELISA inhibitory activities of the test compounds were determined at the serum dilution which gave about 50% of the maximum optical density (OD415nm =2.6) of ELISA of control at serum dilution of one hundredfold. The inhibitory activity was calculated by the following calculation formula.
In the next, ELISA inhibition study was undertaken to determine the potency of ELISA inhibitory activity of active compounds. […] The inhibitory activity was expressed as the concentration which decreased optical density of ELISA to a half (OD50) of the control.

Data set [4] has as its system guinea-pigs. The data set is described as follows: Active systemic anaphylaxis (ASA) reaction, sensitization antigenicity. The class given is in vivo, guinea-pig.
Excerpt: as §1, §2, §3
ASA reaction: Iodinated GSA (1 mg/animal) was injected intravenously to the animals one week after the last sensitization injection, by which ASA reaction was elicited. The animals which indicated symptoms of anaphylactic shock were judged as being positive.

Each structure is given as a SMILES string. Non-standard residues stand in square brackets, D forms with d. Residues, ends and D or L forms follow the SMILES beside them. Tyr(3,5-I2) = N[C@@H](Cc1cc(I)c(O)c(I)c1)C(=O)O

Turning to `N[C@@H](Cc1cc(I)c(O)c(I)c1)C(=O)N[C@@H](Cc1cc(I)c(O)c(I)c1)C(=O)N[C@@H](Cc1cc(I)c(O)c(I)c1)C(=O)O` [Iodinated trityrosine, hexaiodo-L-trityrosine] (H-[Tyr(3,5-I2)]-[Tyr(3,5-I2)]-[Tyr(3,5-I2)]-OH), in data set [1] (1 μg/site intradermal), the “Mean diameter of blue spots, iodine-sensitized guinea pig (first value)” value (“Mean diameter of blue spots … (first value)” below) was 6.0 mm; the “Mean diameter of blue spots, iodine-sensitized guinea pig (second value)” value (shortened to “Mean diameter of blue spots … (second value)”) is recorded as “--”; the “Mean diameter of blue spots, non-sensitized guinea-pig” value is listed as “--”. Besides, in data set [1] (10 μg/site intradermal), the “Mean diameter of blue spots … (first value)” value worked out at 8.5 mm; the “Mean diameter of blue spots … (second value)” value was found to be 4.0 mm; the “Mean diameter of blue spots, non-sensitized guinea-pig” value was “--”. Further, in data set [1] (100 μg/site intradermal), the “Mean diameter of blue spots … (first value)” value worked out at 11.0 mm; the “Mean diameter of blue spots … (second value)” value came out at 6.0 mm; the “Mean diameter of blue spots, non-sensitized guinea-pig” value is listed as “--”. Also, the “ACA reaction (in words)” value in data set [1] (intradermal injection, guinea-pigs sensitized with iodine) is reported as “ACA reaction was elicited”. The “PCA reaction (in words)” value in data set [2] (sensitized group) is on record as “negative in all animals”. The “Anti-iodine antibody production / sensitization antigenicity (in words)” value in data set [2] (sensitized guinea-pigs, from ASA and PCA reactions) is listed as “no anti-iodine antibody was produced”. Also, the “PCA reaction: number of positive animal/number of sensitized animal” value in data set [2] (serum diluted fivefold, 0.1 ml/site, iodinated GSA 1 mg/animal i.v., positive = blue spot 5 mm or larger) is reported as 0/5. In addition, in data set [3], the IC50 worked out at 125 µM. In data set [4] (sensitized 10 mg/animal s.c. 3 times, elicited with iodinated GSA 1 mg/animal i.v.), the “ASA reaction: number of positive animal/number of sensitized animal” value is on record as 0/5. Further, the “ASA reaction (in words)” value in data set [4] (sensitized group) was “negative in all animals”.
